How the values were obtained:
[1] = molecular target: T1, Full length DGKζ (in-house protein M1-V929) (Homo sapiens, UniProt Q13574); experiment: Biochemical DGK IC50 assay (ADP-Glo, lipid micelle substrate), DGKζ; details: 1 hour preincubation, 1 hour reaction, room temperature
T1 construct: His (N); TEV site (N); made in house; host or cells: Sf9 insect cells (Bac-to-Bac baculovirus)
Outline: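 Full-length human DGKζ (M1-V929, His-TEV tagged, Sf9 baculovirus-expressed) with DAG/PS lipid micelle substrate in octyl glucoside, at room temperature in 50 mM HEPES, 10 mM MgCl2, 0.01 mM CaCl2 buffer.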

[2] = molecular target: T2, Full length DGKα (D21-10BG, SignalChem) (Homo sapiens, UniProt P23743); experiment: Biochemical DGK IC50 assay (ADP-Glo, lipid micelle substrate), DGKα; details: 1 hour preincubation, 1 hour reaction, room temperature
T2 construct: Full length DGKα (D21-10BG, SignalChem); purchased SignalChem D21-10BG
T2 sequence (P23743 whole entry): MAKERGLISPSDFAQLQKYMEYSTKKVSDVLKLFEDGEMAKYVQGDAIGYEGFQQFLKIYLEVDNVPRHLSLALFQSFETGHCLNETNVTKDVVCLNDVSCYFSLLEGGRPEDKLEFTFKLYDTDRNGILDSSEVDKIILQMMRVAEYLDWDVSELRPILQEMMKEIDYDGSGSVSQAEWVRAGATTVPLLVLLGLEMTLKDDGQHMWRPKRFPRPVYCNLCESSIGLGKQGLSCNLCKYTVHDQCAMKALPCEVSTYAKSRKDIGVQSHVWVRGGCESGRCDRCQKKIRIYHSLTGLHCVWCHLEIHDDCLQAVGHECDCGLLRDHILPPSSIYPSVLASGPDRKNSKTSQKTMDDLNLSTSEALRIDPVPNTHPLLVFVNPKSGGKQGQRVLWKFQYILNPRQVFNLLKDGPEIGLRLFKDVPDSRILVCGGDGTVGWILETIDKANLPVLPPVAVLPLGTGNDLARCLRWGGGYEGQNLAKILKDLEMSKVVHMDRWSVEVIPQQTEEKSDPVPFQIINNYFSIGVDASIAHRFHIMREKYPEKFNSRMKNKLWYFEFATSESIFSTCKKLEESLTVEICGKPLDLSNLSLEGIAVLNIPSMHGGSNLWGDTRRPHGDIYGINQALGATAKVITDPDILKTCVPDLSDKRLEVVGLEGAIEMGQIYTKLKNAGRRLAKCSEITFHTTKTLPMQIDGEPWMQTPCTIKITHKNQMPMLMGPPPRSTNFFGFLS
Outline: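 Full-length human DGKα with DAG/PS lipid micelle substrate (in octyl glucoside buffer), reacted 1 h at room temperature in 50 mM HEPES, 10 mM MgCl2, 0.01 mM CaCl2, 0.1 mM Na3VO4, 0.01% BSA, 0.005% Tween-20. ADP formed read by ADP-Glo luminescence; IC50 from inhibition across increasing compound concentrations.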

T1 sequence (Q13574 1-929 isoform Q13574-4): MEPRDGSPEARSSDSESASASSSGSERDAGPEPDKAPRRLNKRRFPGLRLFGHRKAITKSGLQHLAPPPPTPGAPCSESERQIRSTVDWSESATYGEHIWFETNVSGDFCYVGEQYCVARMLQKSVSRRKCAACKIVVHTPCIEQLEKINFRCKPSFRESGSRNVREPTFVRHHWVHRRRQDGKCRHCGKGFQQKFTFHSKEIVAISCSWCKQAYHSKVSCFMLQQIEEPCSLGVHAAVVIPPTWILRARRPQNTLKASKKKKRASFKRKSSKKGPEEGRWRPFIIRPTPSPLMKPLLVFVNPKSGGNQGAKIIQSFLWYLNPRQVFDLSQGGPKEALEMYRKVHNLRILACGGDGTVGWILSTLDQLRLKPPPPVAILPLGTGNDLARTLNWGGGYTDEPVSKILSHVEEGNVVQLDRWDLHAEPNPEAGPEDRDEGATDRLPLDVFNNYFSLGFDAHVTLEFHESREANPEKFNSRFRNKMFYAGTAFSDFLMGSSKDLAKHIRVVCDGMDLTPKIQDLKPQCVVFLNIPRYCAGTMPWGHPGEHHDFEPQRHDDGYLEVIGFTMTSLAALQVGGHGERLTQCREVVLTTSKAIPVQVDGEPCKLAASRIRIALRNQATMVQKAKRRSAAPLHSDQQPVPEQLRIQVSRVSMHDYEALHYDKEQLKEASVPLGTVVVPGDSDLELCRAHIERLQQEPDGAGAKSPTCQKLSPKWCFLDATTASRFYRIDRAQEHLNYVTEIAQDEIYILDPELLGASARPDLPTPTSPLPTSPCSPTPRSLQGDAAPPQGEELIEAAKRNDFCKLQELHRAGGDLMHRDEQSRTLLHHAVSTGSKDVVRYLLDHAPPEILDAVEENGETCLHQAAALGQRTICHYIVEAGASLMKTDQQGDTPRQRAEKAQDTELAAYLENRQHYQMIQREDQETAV

Compound	IC50 [1] [nM]	IC50 [2] [nM]
CC(c1ccc2c(c1)OC(F)(F)C(F)(F)O2)N1C[C@H](C)N(c2nc(=O)n(C)c3c2nc(CC#N)n3C)C[C@H]1C (single isomer, unassigned) [Compound A79a]	38	7280
COC[C@H]1CN(C(C)c2ccc(F)cc2C(F)(F)F)[C@H](C)CN1c1nc(=O)n(C)c2c1nc(CC#N)n2C (single isomer, unassigned) [Compound A10b]	14	> 10000
CCn1c(CC#N)nc2c(N3C[C@@H](C)N(C(C)c4cc(F)c5c(n4)OC(C)(C)CO5)C[C@@H]3C)nc(=O)n(C)c21 (mixture of isomers) [Compound A163, 2-(9-ethyl-6-((2S,5R)-4-(1-(8-fluoro-3,3-dimethyl-2,3-dihydro-[1,4]dioxino[2,3-b]pyridin-6-yl)ethyl)-2,5-dimethylpiperazin-1-yl)-3-methyl-2-oxo-3,9-dihydro-2H-purin-8-yl)acetonitrile]	48	> 150000
CC(c1ccc2c(c1)OCCO2)N1C[C@H](C)N(c2nc(=O)n(C)c3c2nc(CC#N)n3C)C[C@H]1C (single isomer, unassigned) [Compound A58b]	1660	90800
CCn1c(CC#N)nc2c(N3C[C@@H](C)N(C(C)c4ccc5c(c4Cl)OC(C)(C)O5)C[C@@H]3C)nc(=O)n(C)c21 (single isomer, unassigned) [Compound A172a]	170	132000
CC(c1ccc(F)cc1C(F)(F)F)N1C[C@H](C)N(c2cc(=O)n(C)c3[nH]c(CC#N)nc23)C[C@H]1C (single isomer, unassigned) [Compound A9b]	169	> 10000
CCn1c(CC#N)nc2c(N3C[C@@H](C)N(C(C)c4ccc(C)c(C(F)(F)F)c4)C[C@@H]3C)nc(=O)n(C)c21 (stereo partly drawn) [Compound A115, 2-(6-((2S,5R)-2,5-dimethyl-4-(1-(4-methyl-3-(trifluoromethyl)phenyl)ethyl)piperazin-1-yl)-9-ethyl-3-methyl-2-oxo-3,9-dihydro-2H-purin-8-yl)acetonitrile]	19	> 150000
CCCn1c(CC#N)nc2c(N3C[C@@H](C)N(C(C)c4ccc5c(c4)OC(C)(C)CO5)C[C@@H]3C)nc(=O)n(C)c21 (stereo partly drawn) [Compound A88, 2-(6-((2S,5R)-4-(1-(3,3-dimethyl-2,3-dihydrobenzo[b][1,4]dioxin-6-yl)ethyl)-2,5-dimethylpiperazin-1-yl)-3-methyl-2-oxo-9-propyl-3,9-dihydro-2H-purin-8-yl)acetonitrile]	4	111000
CCn1c(CC#N)nc2c(N3C[C@@H](C)N(C(C)c4cccc(C5(C)CC5)c4)C[C@@H]3C)nc(=O)n(C)c21 (stereo partly drawn) [Compound A126, 2-(6-((2S,5R)-2,5-dimethyl-4-(1-(3-(1-methylcyclopropyl)phenyl)ethyl)piperazin-1-yl)-9-ethyl-3-methyl-2-oxo-3,9-dihydro-2H-purin-8-yl)acetonitrile]	24	124000

— US20260125378A2, “Heterocyclic Compounds” (BeOne Medicines I GmbH, priority 2023, published 2026)
